Assay results taken from PubChem BioAssay (NCI).
Where “and” joins values, the source holds several entries; their conditions need not be identical. Equal values may be shown once.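 1) Cells in 96-well plates. 2) Compound, 48 h, 5 concentrations. 3) Linear interpolation between surrounding doses. 4) Unreached endpoint = highest concentration. GI50 marks 50% less growth. TGI: concentration producing complete growth inhibition.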

Assays:
Assay in all cases: DTP human tumour cell line panel, 48 h
NCI/ADR-RES ovarian = test system: NCI/ADR-RES ovarian
M14 melanoma = test system: M14 melanoma
SK-MEL-2 melanoma = test system: SK-MEL-2 melanoma
A549 NSCLC = test system: A549 NSCLC
HOP-62 NSCLC = test system: HOP-62 NSCLC
SK-MEL-28 melanoma = test system: SK-MEL-28 melanoma
MCF7 breast = test system: MCF7 breast
HL-60(TB) leukemia = test system: HL-60(TB) leukemia
HCT-116 colon = test system: HCT-116 colon
HCT-15 colon = test system: HCT-15 colon

SMILES | TGI (NCI/ADR-RES ovarian) [µM] | TGI (M14 melanoma) [µM] | TGI (SK-MEL-2 melanoma) | TGI (A549 NSCLC) [µM] | TGI (HOP-62 NSCLC) | TGI (SK-MEL-28 melanoma) [µM] | TGI (MCF7 breast) | TGI (HL-60(TB) leukemia) [µM] | TGI (HCT-116 colon) [µM] | TGI (HCT-15 colon) [µM] | GI50 (NCI/ADR-RES ovarian) | GI50 (M14 melanoma) | GI50 (SK-MEL-2 melanoma) | GI50 (A549 NSCLC) | GI50 (HOP-62 NSCLC) | GI50 (SK-MEL-28 melanoma) | GI50 (MCF7 breast) | GI50 (HL-60(TB) leukemia) | GI50 (HCT-116 colon) | GI50 (HCT-15 colon)
Nc1ccc2c(SCC(=O)Nc3ccccc3-c3ccccc3NC(=O)CSc3c4ccccc4nc4cc(N)ccc34)c3ccccc3nc2c1 | > 100 | 59 | 68 µM | > 100 | 63.4 µM | 52.5 | > 100 µM | 36.6 | 64.5 | > 93.8 | – | – | – | – | – | – | – | – | – | –
Oc1cccc(-c2nc(N3CCOCC3)c3oc4ncccc4c3n2)c1 | – | – | 0.641 µM and 1.92 µM | – | 3.7 µM and 5.53 µM | 2.22 | > 100 µM and 11.9 µM | – | > 100 | > 100 | 0.147 µM and 0.225 µM | 0.127 µM and 0.152 µM | 0.147 µM and 0.295 µM | 0.317 µM and 0.225 µM | 0.234 µM and 0.227 µM | 0.152 µM and 0.0882 µM | 0.27 µM and 0.18 µM | 0.117 µM and 0.364 µM | 0.53 µM and 0.426 µM | 0.125 µM and 0.112 µM
N#CC1=C(N)Oc2c(sc3c(Br)cccc23)C1c1ccc(F)cc1 (stereo unspecified) | 2.63 | 14.9 | 31.1 µM | 18 | 17.9 µM | 28.2 | 14.3 µM | 1.02 | 12.3 | 11.4 | 0.215 µM | 0.3 µM | 0.487 µM | 0.519 µM | 0.354 µM | 1.61 µM | 0.273 µM | 0.204 µM | 0.409 µM | 0.39 µM
Cc1cc([C@H](C)Nc2nccc(N3C(=O)OC[C@@H]3[C@H](C)F)n2)ncc1-c1ccnc(C(F)(F)F)c1 | > 100 | > 100 | > 100 µM | > 100 | > 100 µM | > 100 | > 100 µM | > 100 | > 100 | > 100 | 23.3 µM | 37.7 µM | 40.2 µM | 29.8 µM | 28.7 µM | 48.8 µM | 26.7 µM | 35.7 µM | 22.7 µM | 35.5 µM
NCCNc1nc2ccccc2c2c(=O)c3cc(F)cc(Cl)c3sc12 | 3.65 | 3.03 | 3.6 µM | 3.72 | 3.04 µM | 3.4 | 3.13 µM | 3.76 | 1.99 | 2.5 | 1.81 µM | 1.65 µM | 1.82 µM | 1.79 µM | 1.35 µM | 1.87 µM | 1.52 µM | 1.88 µM | 0.694 µM | 1.18 µM
CC(C)(C)OC(=O)n1c(Cl)c(C(=O)N=C=S)c2ccccc21 | 62.6 | > 100 | 75.8 µM | > 100 | > 100 µM | > 100 | > 100 µM | > 100 | > 100 | > 100 | 18.5 µM | > 100 µM | 24.7 µM | 50 µM | > 100 µM | 80.7 µM | 37.2 µM | 24.4 µM | 55.7 µM | 30 µM
Cc1ccc2c(C(C[N+](=O)[O-])c3ccco3)c(-c3ccccc3)[nH]c2c1 (stereo unspecified) | > 100 | > 100 | > 100 µM | > 100 | > 100 µM | > 100 | > 100 µM | > 100 | > 100 | > 100 | 11.7 µM | 12.2 µM | 38.2 µM | 48.3 µM | 16 µM | 98.9 µM | 9.09 µM | 28.3 µM | 19.8 µM | 7.28 µM
C/C(=N\O)[C@H]1CC[C@@]2(C)[C@@H]3CC[C@H]4C(C)(C)/C(=N/O)CC[C@@]45CC35CC[C@]12C (stereo partly specified) | 7.93 | 8.11 | > 16.7 µM | 9.59 | > 16.7 µM | 14.2 | > 16.7 µM | > 16.7 | 5.77 | 10.5 | 2.76 µM | 3.2 µM | 13.4 µM | 3.92 µM | 4.3 µM | 4.34 µM | 5.82 µM | 1.62 µM | 2.45 µM | 3.75 µM
COc1ccccc1-c1nccc(COc2ccccc2C[C@@H](Oc2ncnc3sc(-c4ccc(F)cc4)c(-c4ccc(OCCN5CCN(C)CC5)c(Cl)c4C)c23)C(=O)O)n1 | > 100 | 4.05 | 0.0367 µM | 31.7 | 7.21 µM | 3.36 | 1.95 µM | 0.0524 | 6.55 | 16.4 | 18.2 µM | 1.73 µM | < 0.0114 µM | 10 µM | 2.39 µM | 1.76 µM | 0.0786 µM | 0.0205 µM | 2.43 µM | 5.82 µM
COc1ccc(-c2nn3ncccc3c2-c2ccnc(Nc3cccc(C(F)(F)F)c3)n2)cc1 | > 25 | > 25 | 21.3 µM | > 25 | > 25 µM | > 25 | > 25 µM | > 25 | > 25 | > 25 | 6.16 µM | 9.01 µM | 8.11 µM | 9.38 µM | 16.8 µM | 16.7 µM | 7.42 µM | 8.74 µM | 7.99 µM | 7.97 µM
Cc1nnc(N=Nc2c(O)[nH]c3ccccc23)[nH]c1=O | > 100 | > 100 | > 100 µM | > 100 | > 100 µM | > 100 | > 100 µM | > 100 | > 100 | > 100 | – | – | – | – | – | – | – | – | – | –
Cc1cc(Nc2cc(N3CCN(C)CC3)nc(C#Cc3ccccc3)n2)n[nH]1 | 28.8 | 14.7 | 7.9 µM | 13.3 | 13.9 µM | 18.3 | 13.1 µM | 14.8 | 12.7 | 15.5 | 4.98 µM | 1.4 µM | 1.24 µM | 2.81 µM | 3.19 µM | 5.05 µM | 2.31 µM | 2.52 µM | 1.4 µM | 2.23 µM
Fc1ccc(-c2cc(-c3cn[nH]c3-c3ccccn3)ccn2)cc1 | > 25 | > 25 | > 25 µM | > 25 | > 25 µM | > 25 | > 25 µM | > 25 | > 25 | > 25 | > 19.5 µM | > 17 µM | > 25 µM | > 25 µM | > 25 µM | > 25 µM | > 25 µM | > 25 µM | > 17.3 µM | > 25 µM
